Data: patent US20100143506A1, “APPARATUS AND METHOD FOR TREATMENT OF MICROORGANISMS DURING SUGAR PRODUCTION AND SUGAR-BASED FE[…]” (priority 2008, published 2010)

How the values were obtained:
bacteria = experiment: Plant trial: lactate in the fermentor while the thin juice line is treated with chlorine dioxide
Method: A thin juice line at a sugar plant that fed into a distillery for fermentation was treated with chlorine dioxide according to the present method. Previously the thin juice line had been treated using sulfuric acid to decrease the pH. The trial evaluated the bacterial efficacy of chlorine dioxide at an elevated pH in order to reduce sulfuric acid use without causing a detrimental effect to the yeast or fermentation.
In the trial, 90% pure chlorine dioxide solution was generated. Twenty parts per million (ppm) of chlorine dioxide was introduced into the thin juice line. Thin juice samples were collected before during and after the trial. The samples were examined for chlorite, chlorate and chloride residuals.
During the trial, bacterial samples were also collected and analyzed at various locations in the system.
The data indicates a low level of lactate before chlorine dioxide was introduced at the normal pH of 3.5. […] On day 18 the equipment had to be shutdown due to an unrelated issue.

fermentation = settings: cited from earlier work
Weisella confusa = settings: cited from earlier work

[O][Cl+][O-] [chlorine dioxide]
Lactate Concentration (bacteria; Day of Trial 4, Fifth location in the Fermentor): 0.6 g/L | Lactate Concentration (bacteria; Day of Trial 4, First location in the Fermentor): 0.39 g/L | Lactate Concentration (bacteria; Day of Trial 4, Fourth location in the Fermentor): 0.58 g/L | Lactate Concentration (bacteria; Day of Trial 4, Second location in the Fermentor): 0.6 g/L | Lactate Concentration (bacteria; Day of Trial 4, Third location in the Fermentor): 0.6 g/L | Lactate Concentration (bacteria; Day of Trial 5, Fifth location in the Fermentor): 0.75 g/L | Lactate Concentration (bacteria; Day of Trial 5, First location in the Fermentor): 0.44 g/L | Lactate Concentration (bacteria; Day of Trial 5, Fourth location in the Fermentor): 0.69 g/L | Lactate Concentration (bacteria; Day of Trial 5, Second location in the Fermentor): 0.66 g/L | Lactate Concentration (bacteria; Day of Trial 5, Third location in the Fermentor): 0.71 g/L | Lactate Concentration (bacteria; Day of Trial 6, Fifth location in the Fermentor): 0.69 g/L | Lactate Concentration (bacteria; Day of Trial 6, First location in the Fermentor): 0.39 g/L | Lactate Concentration (bacteria; Day of Trial 6, Fourth location in the Fermentor): 0.71 g/L | Lactate Concentration (bacteria; Day of Trial 6, Second location in the Fermentor): 0.54 g/L | Lactate Concentration (bacteria; Day of Trial 6, Third location in the Fermentor): 0.62 g/L | Lactate Concentration (bacteria; Day of Trial 7, Fifth location in the Fermentor): 0.9 g/L | Lactate Concentration (bacteria; Day of Trial 7, First location in the Fermentor): 0.51 g/L | Lactate Concentration (bacteria; Day of Trial 7, Fourth location in the Fermentor): 0.88 g/L | Lactate Concentration (bacteria; Day of Trial 7, Second location in the Fermentor): 0.76 g/L | Lactate Concentration (bacteria; Day of Trial 7, Third location in the Fermentor): 0.81 g/L | Lactate Concentration (bacteria; Day of Trial 8, Fifth location in the Fermentor): 0.75 g/L | Lactate Concentration (bacteria; Day of Trial 8, First location in the Fermentor): 0.44 g/L | Lactate Concentration (bacteria; Day of Trial 8, Fourth location in the Fermentor): 0.7 g/L | Lactate Concentration (bacteria; Day of Trial 8, Second location in the Fermentor): 0.55 g/L | Lactate Concentration (bacteria; Day of Trial 8, Third location in the Fermentor): 0.64 g/L | Lactate Concentration (bacteria; Day of Trial 9, Fifth location in the Fermentor): 0.83 g/L | Lactate Concentration (bacteria; Day of Trial 9, First location in the Fermentor): 0.5 g/L | Lactate Concentration (bacteria; Day of Trial 9, Fourth location in the Fermentor): 0.78 g/L | Lactate Concentration (bacteria; Day of Trial 9, Second location in the Fermentor): 0.68 g/L | Lactate Concentration (bacteria; Day of Trial 9, Third location in the Fermentor): 0.74 g/L | Lactate Concentration (bacteria; Day of Trial 10, Fifth location in the Fermentor): 0.84 g/L | Lactate Concentration (bacteria; Day of Trial 10, First location in the Fermentor): 0.55 g/L | Lactate Concentration (bacteria; Day of Trial 10, Fourth location in the Fermentor): 0.83 g/L | Lactate Concentration (bacteria; Day of Trial 10, Second location in the Fermentor): 0.77 g/L | Lactate Concentration (bacteria; Day of Trial 10, Third location in the Fermentor): 0.82 g/L | Lactate Concentration (bacteria; Day of Trial 11, Fifth location in the Fermentor): 0.8 g/L | Lactate Concentration (bacteria; Day of Trial 11, First location in the Fermentor): 0.4 g/L | Lactate Concentration (bacteria; Day of Trial 11, Fourth location in the Fermentor): 0.65 g/L | Lactate Concentration (bacteria; Day of Trial 11, Second location in the Fermentor): 0.5 g/L | Lactate Concentration (bacteria; Day of Trial 11, Third location in the Fermentor): 0.55 g/L | Lactate Concentration (bacteria; Day of Trial 13, Fifth location in the Fermentor): 0.42 g/L | Lactate Concentration (bacteria; Day of Trial 13, First location in the Fermentor): 0.22 g/L | Lactate Concentration (bacteria; Day of Trial 13, Fourth location in the Fermentor): 0.39 g/L | Lactate Concentration (bacteria; Day of Trial 13, Second location in the Fermentor): 0.33 g/L | Lactate Concentration (bacteria; Day of Trial 13, Third location in the Fermentor): 0.36 g/L | Lactate Concentration (bacteria; Day of Trial 14, Fifth location in the Fermentor): 0.51 g/L | Lactate Concentration (bacteria; Day of Trial 14, First location in the Fermentor): 0.22 g/L | Lactate Concentration (bacteria; Day of Trial 14, Fourth location in the Fermentor): 0.4 g/L | Lactate Concentration (bacteria; Day of Trial 14, Second location in the Fermentor): 0.36 g/L | Lactate Concentration (bacteria; Day of Trial 14, Third location in the Fermentor): 0.37 g/L | Lactate Concentration (bacteria; Day of Trial 15, Fifth location in the Fermentor): 0.5 g/L | Lactate Concentration (bacteria; Day of Trial 15, First location in the Fermentor): 0.22 g/L | Lactate Concentration (bacteria; Day of Trial 15, Fourth location in the Fermentor): 0.4 g/L | Lactate Concentration (bacteria; Day of Trial 15, Second location in the Fermentor): 0.32 g/L | Lactate Concentration (bacteria; Day of Trial 15, Third location in the Fermentor): 0.34 g/L | Lactate Concentration (bacteria; Day of Trial 16, Fifth location in the Fermentor): 0.6 g/L | Lactate Concentration (bacteria; Day of Trial 16, First location in the Fermentor): 0.3 g/L | Lactate Concentration (bacteria; Day of Trial 16, Fourth location in the Fermentor): 0.5 g/L | Lactate Concentration (bacteria; Day of Trial 16, Second location in the Fermentor): 0.4 g/L | Lactate Concentration (bacteria; Day of Trial 16, Third location in the Fermentor): 0.45 g/L | Lactate Concentration (bacteria; Day of Trial 17, Fifth location in the Fermentor): 0.67 g/L | Lactate Concentration (bacteria; Day of Trial 17, First location in the Fermentor): 0.29 g/L | Lactate Concentration (bacteria; Day of Trial 17, Fourth location in the Fermentor): 0.57 g/L | Lactate Concentration (bacteria; Day of Trial 17, Second location in the Fermentor): 0.43 g/L | Lactate Concentration (bacteria; Day of Trial 17, Third location in the Fermentor): 0.5 g/L | Lactate Concentration (bacteria; Day of Trial 18, Fifth location in the Fermentor): 0.62 g/L | Lactate Concentration (bacteria; Day of Trial 18, First location in the Fermentor): 0.43 g/L | Lactate Concentration (bacteria; Day of Trial 18, Fourth location in the Fermentor): 0.6 g/L | Lactate Concentration (bacteria; Day of Trial 18, Second location in the Fermentor): 0.48 g/L | Lactate Concentration (bacteria; Day of Trial 18, Third location in the Fermentor): 0.54 g/L | Lactate Concentration (bacteria; Day of Trial 19, Fifth location in the Fermentor): 1.1 g/L | Lactate Concentration (bacteria; Day of Trial 19, First location in the Fermentor): 0.4 g/L | Lactate Concentration (bacteria; Day of Trial 19, Fourth location in the Fermentor): 0.8 g/L | Lactate Concentration (bacteria; Day of Trial 19, Second location in the Fermentor): 0.6 g/L | Lactate Concentration (bacteria; Day of Trial 19, Third location in the Fermentor): 0.7 g/L | Lactate Concentration (bacteria; Day of Trial 20, Fifth location in the Fermentor): 0.85 g/L | Lactate Concentration (bacteria; Day of Trial 20, First location in the Fermentor): 0.55 g/L | Lactate Concentration (bacteria; Day of Trial 20, Fourth location in the Fermentor): 0.5 g/L | Lactate Concentration (bacteria; Day of Trial 20, Second location in the Fermentor): 0.7 g/L | Lactate Concentration (bacteria; Day of Trial 20, Third location in the Fermentor): 0.75 g/L | Lactate Concentration (bacteria; Day of Trial 21, Fifth location in the Fermentor): 1.36 g/L | Lactate Concentration (bacteria; Day of Trial 21, First location in the Fermentor): 0.9 g/L | Lactate Concentration (bacteria; Day of Trial 21, Fourth location in the Fermentor): 1.35 g/L | Lactate Concentration (bacteria; Day of Trial 21, Second location in the Fermentor): 1.16 g/L | Lactate Concentration (bacteria; Day of Trial 21, Third location in the Fermentor): 1.24 g/L | Lactate Concentration (bacteria; Day of Trial 22, Fifth location in the Fermentor): 1.66 g/L | Lactate Concentration (bacteria; Day of Trial 22, First location in the Fermentor): 1.31 g/L | Lactate Concentration (bacteria; Day of Trial 22, Fourth location in the Fermentor): 2.04 g/L | Lactate Concentration (bacteria; Day of Trial 22, Second location in the Fermentor): 1.73 g/L | Lactate Concentration (bacteria; Day of Trial 22, Third location in the Fermentor): 2.01 g/L | Lactate Concentration (bacteria; Day of Trial 23, Fifth location in the Fermentor): 2.15 g/L | Lactate Concentration (bacteria; Day of Trial 23, First location in the Fermentor): 1.39 g/L | Lactate Concentration (bacteria; Day of Trial 23, Fourth location in the Fermentor): 2.19 g/L | Lactate Concentration (bacteria; Day of Trial 23, Second location in the Fermentor): 1.75 g/L | Lactate Concentration (bacteria; Day of Trial 23, Third location in the Fermentor): 2.01 g/L | Lactate Concentration (bacteria; Day of Trial 24, Fifth location in the Fermentor): 2.13 g/L | Lactate Concentration (bacteria; Day of Trial 24, First location in the Fermentor): 1.12 g/L | Lactate Concentration (bacteria; Day of Trial 24, Fourth location in the Fermentor): 2 g/L | Lactate Concentration (bacteria; Day of Trial 24, Second location in the Fermentor): 1.41 g/L | Lactate Concentration (bacteria; Day of Trial 24, Third location in the Fermentor): 1.73 g/L | lactate trend once treatment was started (bacteria; chlorine dioxide at 20 ppm with a pH elevation to 4): trended downward

Virginiamycin
concentration that will suppress fermentation (fermentation): over 6 mg/L | concentration required to inhibit growth of Weisella confusa (Weisella confusa): over 25 mg/L
